The record followed here is ChEMBL document CHEMBL1150012, “Enantioselective synthesis of a pyrrolo-benzothiadiazine derivative S 18986, a new AMPA receptor positive modulator” (Bioorg Med Chem Lett, 1996).

A value given as a limit tells only on which side of the number the result lay.

Assay [1] addresses Glutamate receptor 1 (Rattus norvegicus) (UniProt P19490). Put plainly: (§1) Compound was evaluated to potentiate response of AMPA-activated current in Xenopus oocytes expressing Ionotropic glutamate receptor AMPA. Type of assay: functional, cell-based. Conditions: Oocyte.
Assay [2] deals with Glutamate receptor ionotropic AMPA (Homo sapiens) (UniProt P48058+P42263+P42262+P42261). The description is as §1. Conditions: Oocyte. Type of assay: functional, cell-based.
For assay [3], the target named is Glutamate receptor ionotropic kainate (Homo sapiens) (UniProt P39086+Q16478+Q16099+Q13002+Q13003). Briefly: Compound was evaluated to potentiate response to Ionotropic glutamate receptor kainate. Type of assay: protein-complex assay.
Assay [4] has as its target Glutamate [NMDA] receptor (Homo sapiens) (UniProt Q05586+Q12879+Q13224+O15399+O60391+Q14957+Q8TCU5). Put plainly: Compound was evaluated to potentiate response to NMDA receptor. It is filed as protein-complex assay.

Chain of Glutamate receptor 1 (Rattus norvegicus) (P19490 whole entry): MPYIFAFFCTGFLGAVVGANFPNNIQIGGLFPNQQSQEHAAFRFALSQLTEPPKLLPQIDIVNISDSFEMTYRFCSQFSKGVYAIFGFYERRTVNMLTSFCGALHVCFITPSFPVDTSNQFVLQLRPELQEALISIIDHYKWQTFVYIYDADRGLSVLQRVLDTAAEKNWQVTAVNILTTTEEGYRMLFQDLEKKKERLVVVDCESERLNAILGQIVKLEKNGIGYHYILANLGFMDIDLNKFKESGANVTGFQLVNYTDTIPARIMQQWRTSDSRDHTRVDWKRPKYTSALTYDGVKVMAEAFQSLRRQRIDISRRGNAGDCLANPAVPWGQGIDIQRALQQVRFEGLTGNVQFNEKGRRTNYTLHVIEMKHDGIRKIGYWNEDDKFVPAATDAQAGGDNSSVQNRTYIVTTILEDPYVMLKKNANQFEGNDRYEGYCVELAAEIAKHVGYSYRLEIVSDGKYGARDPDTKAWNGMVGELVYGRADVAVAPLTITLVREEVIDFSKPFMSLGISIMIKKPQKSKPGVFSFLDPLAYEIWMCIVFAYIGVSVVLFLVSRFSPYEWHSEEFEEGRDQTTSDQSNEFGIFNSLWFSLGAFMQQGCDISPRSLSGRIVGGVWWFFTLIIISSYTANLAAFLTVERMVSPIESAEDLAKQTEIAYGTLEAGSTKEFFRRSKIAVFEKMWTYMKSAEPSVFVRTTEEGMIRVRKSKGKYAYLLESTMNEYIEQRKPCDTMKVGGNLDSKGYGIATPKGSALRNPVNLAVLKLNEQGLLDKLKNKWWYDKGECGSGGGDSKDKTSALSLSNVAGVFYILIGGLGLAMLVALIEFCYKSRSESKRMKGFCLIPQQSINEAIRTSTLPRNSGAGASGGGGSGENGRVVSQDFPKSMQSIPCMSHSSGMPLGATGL

`O=S1(=O)NC2CCCN2c2ccccc21` (racemic): in assay [1], the EC2x is 60 µM and the EC5x came out at 160 µM.

As to `O=C(c1ccc2c(c1)OCO2)N1CCCCC1`, the EC2x in assay [1] stood at 300 µM.

As for `O=C(c1ccc2c(c1)OCCO2)N1CC=CCC1`, in assay [1], the EC2x came out at 45 µM and the EC5x turned out to be 110 µM.

Take `O=S1(=O)N[C@H]2CCCN2c2ccccc21`: the EC2x is 35 µM in assay [2], more than 300 µM in assay [3] and more than 300 µM in assay [4]. Moreover, in assay [2], the EC5x is 70 µM.

`O=S1(=O)N[C@@H]2CCCN2c2ccccc21`: the EC2x in assay [1] amounted to 300 µM.

On to `NS(=O)(=O)c1cc2c(cc1Cl)NC(C1CC3C=CC1C3)NS2(=O)=O` (configuration not stated), for which, in assay [1], the EC2x stood at 2 µM and the EC5x was determined as 10 µM.
